Measurements: patent publication US20230285292A1, “COMPOSITIONS AND METHODS OF USING A PLA2-RESPONSIVE DRUG DELIVERY SYSTEM” (THE TRUSTEES OF THE UNIVERSITY OF PENNSYLVANIA, priority 2020, published 2023)

How the values were obtained:
[1] = tested on: chronic constriction of the sciatic nerve; conditions: intrathecal, given 1 day after chronic constriction of the sciatic nerve, only under daily repeated dosing; cited from earlier work
[2] = Toxicity in mice after 2-month serial intra-articular injections; type: in vivo, mouse
Source text: After 2 months treatment for DMM mice, some major organs (kidney, liver, lung, heart, and spleen) and blood were collected. Tissue sections were stained with hematoxylin and eosin (H&E) to assess the effects of different treatment on mouse organ morphology.

[3] = tested on: DMM-induced OA knee joints; experiment: DMM surgery-induced OA model, histology and microCT; type: in vivo, mouse; conditions: for morphology and structure of articular cartilage / cartilage degeneration: intra-articular injection once every two weeks starting immediately after DMM, 2 and 4 months
Source text: To induce mouse OA that mimics chronic OA in human patients, male mice at 3 months of age were subjected to DMM surgery at right knees and sham surgery at left knees. Briefly, in DMM surgery, the joint capsule was opened immediately after anesthesia and the medial meniscotibial ligament was cut to destabilize the meniscus without damaging other tissues. In Sham surgery, the joint capsule was opened in the same fashion but without any further damage. […] For DMM surgical OA model, the first injection was performed immediately after surgery. Injections were then repeated every 2 weeks for 2 or 4 months. In total, there are 4 injections for the 2 months group and 8 injections for 4 months group. For load-induced OA model, injections (i.a.) were performed immediately and at 48 hours after loading. There are 2 injections in total for each mouse in this model. After euthanasia, mouse knee joints were harvested and fixed in 4% paraformaldehyde overnight followed by decalcification in 0.5 M EDTA (pH 7.4) for 4 weeks prior to paraffin embedding. A serial of 6 μm-thick sagittal sections (about 100) were cut across the entire medial compartment of the joint until ACL junction. […] The final measurement is an average of these three sections. We defined uncalcified cartilage as the area from articular surface to the tide mark and calcified cartilage as the area from tide mark to cement line. The method to measure Mankin Score was described previously(37). Briefly, two sections within every consecutive six sections in the entire section set for each knee were stained with Safranin 0/Fast green and scored by two blinded observers. Each knee received a single score representing the maximal score of its sections. Synovitis score grading was carried out in 6-μm paraffin sections of sagittal mouse knee sections stained with H&E. The following basic morphological parameters of synovitis were included: (i) hyperplasia/enlargement of synovial lining layer, (ii) degree of inflammatory infiltration and (iii) activation of resident cells/synovial stroma, including fibroblasts, endothelial cells, histiocytes, macrophages, and multinucleated giant cells. All parameters are graded from 0 (absent), 1 (slight), 2 (moderate) to 3 (strong positive). The distal femur of mouse knee joints was scanned at a 6-μm isotropic voxel size with a microCT 35 scanner (Scanco Medical AG, Brüttisellen, Switzerland). All images were smoothened by a Gaussian filter (sigma=1.2, support=2.0). Measurement of SBP thickness was described previously(39). […] The region of interest (ROI) was circled and the average SBP thickness within ROI is calculated by average grey value/255*max scale bar value. […]

[4] = tested on: load-induced OA knee joints; experiment: Single load-induced PTOA model, von Frey pain analysis; type: in vivo, mouse; conditions: 6 N or 9 N loading
Source text: To induce mouse OA that is noninvasive and mimics post-traumatic OA in human patients, male mice (2 months old) were subjected mechanic loading at the right knees and sham loading at left knees. Briefly, under anesthesia, the right tibiae were positioned with the knee downward in deep flexion between custom-made cups and subjected to axial compressive loads with a peak force of 6 or 9 Newtons (N) with a 0.5 N preload force to maintain the limb in position between loading cycles. Cyclic loads were applied for 0.34 s with a rise and fall time each of 0.17 s and a baseline hold time of 10 s between cycles for 60 cycles. The uninjured left knees were used as controls. […] For DMM surgical OA model, the first injection was performed immediately after surgery. Injections were then repeated every 2 weeks for 2 or 4 months. In total, there are 4 injections for the 2 months group and 8 injections for 4 months group. For load-induced OA model, injections (i.a.) were performed immediately and at 48 hours after loading. […] The knee joint pain after DMM surgery or loading injury was evaluated in mice weekly before and after surgery using von Frey filaments as described previously(38). […] The threshold force required to elicit withdrawal of the paw (median 50% withdrawal) was determined five times on each hind paw with sequential measurements separated by at least 5 minutes.

[5] = tested on: load-induced OA knee joints; experiment: Single load-induced PTOA model, histology and TUNEL; type: in vivo, mouse; conditions: 6 N or 9 N loading, two weeks
Source text: To induce mouse OA that is noninvasive and mimics post-traumatic OA in human patients, male mice (2 months old) were subjected mechanic loading at the right knees and sham loading at left knees. Briefly, under anesthesia, the right tibiae were positioned with the knee downward in deep flexion between custom-made cups and subjected to axial compressive loads with a peak force of 6 or 9 Newtons (N) with a 0.5 N preload force to maintain the limb in position between loading cycles. Cyclic loads were applied for 0.34 s with a rise and fall time each of 0.17 s and a baseline hold time of 10 s between cycles for 60 cycles. The uninjured left knees were used as controls. […] For DMM surgical OA model, the first injection was performed immediately after surgery. Injections were then repeated every 2 weeks for 2 or 4 months. In total, there are 4 injections for the 2 months group and 8 injections for 4 months group. For load-induced OA model, injections (i.a.) were performed immediately and at 48 hours after loading. There are 2 injections in total for each mouse in this model. […] Cartilage injury length was measured in Safranin 0/Fast green stained paraffin sections. […] According to these histological changes, it is possible to identify the demarcation between the normal and injured cartilage tissue, and the length of the cartilage lesion range was measured. […]

[6] = tested on: DMM-induced OA knee joints; experiment: DMM surgery-induced OA model, von Frey pain analysis; type: in vivo, mouse; conditions: DMM knees; from 2 weeks post-surgery throughout experimental period
Source text: To induce mouse OA that mimics chronic OA in human patients, male mice at 3 months of age were subjected to DMM surgery at right knees and sham surgery at left knees. Briefly, in DMM surgery, the joint capsule was opened immediately after anesthesia and the medial meniscotibial ligament was cut to destabilize the meniscus without damaging other tissues. In Sham surgery, the joint capsule was opened in the same fashion but without any further damage. […] For DMM surgical OA model, the first injection was performed immediately after surgery. Injections were then repeated every 2 weeks for 2 or 4 months. In total, there are 4 injections for the 2 months group and 8 injections for 4 months group. For load-induced OA model, injections (i.a.) were performed immediately and at 48 hours after loading. There are 2 injections in total for each mouse in this model. The knee joint pain after DMM surgery or loading injury was evaluated in mice weekly before and after surgery using von Frey filaments as described previously(38). An individual mouse was placed on a wire-mesh platform (Excellent Technology Co.) under a 4×3×7 cm cage to restrict their move. […] The threshold force required to elicit withdrawal of the paw (median 50% withdrawal) was determined five times on each hind paw with sequential measurements separated by at least 5 minutes.

SMILES	behavioral sensitivity [1]	blood parameters (hematology, renal and liver function, serum electrolytes) ([2]; 2-month serial injections)	histopathology of liver, spleen, kidney, lung, heart and knee joint ([2]; two months after serial intra-articular injections)	increase of SBP thickness at femoral medial site compared to sham joints ([3]; 4 months after DMM surgery) [fold]	increase in synovitis score compared with sham knees ([3]; DMM knees, 2-month treatment)	morphology and structure of articular cartilage / cartilage degeneration [3]	morphology and structure of articular cartilage / cartilage degeneration ([3]; listed as free sPLA2i)	pain threshold / OA pain (von Frey) [4]	length of cartilage injury [5]	synovitis scores [5]	mechanical threshold / OA pain (von Frey) [6]
CCCCC/C=C\C/C=C\C/C=C\C/C=C\CCCC(=O)C(F)(F)F [AACOCF3]	reduces behavioral sensitivity										
CCCCCCCCCCCCCCCCSCC(COP(=O)([O-])OCC[N+](C)(C)C)NC(=O)CCCCCCCCCCCCCCC (centres unmarked) [sPLA2i, 1-Palmitylthio-2-palmitoylamido-1,2-dideoxy-sn-glycero-3-phosphorylcholine]		no significant difference	did not observe any histopathological abnormalities	1.31	more than 10 fold	did not have a protective effect	not observed	experienced OA pain	significant damage areas	significant synovitis	did not alter the OA pain
